ChEMBL document CHEMBL1147899, “Raman, FT-IR, NMR spectroscopic data and antimicrobial activity of bis[micro2-(benzimidazol-2-yl)-2-ethanethiolato-N,S,S-chloro-palladium(II)] dimer, [(micro2-CH2CH2NHNCC6H4)PdCl]2.C2H5OH complex” (2007)
≈ marks a conversion by molar mass, not a printed value.

Key:
Micrococcus luteus [1] = experiment: Antibacterial activity against Micrococcus luteus La 2971 at 30 ug by disk diffusion method; assay type: functional; details: read-out: IZ
Escherichia coli [2] = experiment: Antibacterial activity against Escherichia coli ATCC 11230 at 30 ug after 24 hrs by disk diffusion method; assay type: functional; details: ATCC 11230, 24 h, read-out: IZ
Listeria monocytogenes [3] = experiment: Antibacterial activity against Listeria monocytogenes ATCC 15313 at 30 ug after 24 hrs by disk diffusion method; assay type: functional; details: ATCC 15313, 24 h, read-out: IZ
[4] = test system: Mycolicibacterium smegmatis; experiment: Antibacterial activity against Mycobacterium smegmatis CCM 2067 at 30 ug after 24 hrs by disk diffusion method; assay type: functional; details: CCM 2067, 24 h, read-out: IZ
Proteus vulgaris [5] = experiment: Antibacterial activity against Proteus vulgaris ATCC 8427 at 30 ug after 24 hrs by disk diffusion method; assay type: functional; details: ATCC 8427, 24 h, read-out: IZ
Bacillus cereus [6] = experiment: Antibacterial activity against Bacillus cereus ATCC 7064 at 30 ug after 24 hrs by disk diffusion method; assay type: functional; details: ATCC 7064, 24 h, read-out: IZ
Staphylococcus aureus [7] = experiment: Antibacterial activity against Staphylococcus aureus ATCC 6538 at 30 ug after 24 hrs by disk diffusion method; assay type: functional; details: ATCC 6538, 24 h, read-out: IZ
Klebsiella pneumoniae [8] = experiment: Antibacterial activity against Klebsiella pneumoniae UC57 at 30 ug after 24 hrs by disk diffusion method; assay type: functional; details: read-out: IZ
[9] = test system: Mycolicibacterium smegmatis; experiment: Antibacterial activity against Mycobacterium smegmatis CCM 2067 after 24 hrs by dilution method; assay type: functional
Micrococcus luteus [10] = experiment: Antibacterial activity against Micrococcus luteus La 2971 after 24 hrs by dilution method; assay type: functional
Proteus vulgaris [11] = experiment: Antibacterial activity against Proteus vulgaris ATCC 8427 by after 24 hrs dilution method; assay type: functional
Pseudomonas aeruginosa [12] = experiment: Antibacterial activity against Pseudomonas aeruginosa ATCC 27853 after 24 hrs by dilution method; assay type: functional
Escherichia coli [13] = experiment: Antibacterial activity against Escherichia coli ATCC 11230 after 24 hrs by dilution method; assay type: functional
Staphylococcus aureus [14] = experiment: Antibacterial activity against Staphylococcus aureus ATCC 6538 after 24 hrs by dilution method; assay type: functional
Klebsiella pneumoniae [15] = experiment: Antibacterial activity against Klebsiella pneumoniae UC57 after 24 hrs by dilution method; assay type: functional
Listeria monocytogenes [16] = experiment: Antibacterial activity against Listeria monocytogenes ATCC 15313 after 24 hrs by dilution method; assay type: functional
Bacillus cereus [17] = experiment: Antibacterial activity against Bacillus cereus ATCC 7064 after 24 hrs by dilution method; assay type: functional
Klebsiella pneumoniae [18] = experiment: Antibacterial activity against Klebsiella pneumoniae UC57 at 10 ug after 24 hrs by disk diffusion method; assay type: functional; details: read-out: IZ
Micrococcus luteus [19] = experiment: Antibacterial activity against Micrococcus luteus La 2971 at 10 ug by disk diffusion method; assay type: functional; details: read-out: IZ
Proteus vulgaris [20] = experiment: Antibacterial activity against Proteus vulgaris ATCC 8427 at 10 ug after 24 hrs by disk diffusion method; assay type: functional; details: ATCC 8427, 24 h, read-out: IZ
Pseudomonas aeruginosa [21] = experiment: Antibacterial activity against Pseudomonas aeruginosa ATCC 27853 at 10 ug after 24 hrs by disk diffusion method; assay type: functional; details: ATCC 27853, 24 h, read-out: IZ
Escherichia coli [22] = experiment: Antibacterial activity against Escherichia coli ATCC 11230 at 10 ug after 24 hrs by disk diffusion method; assay type: functional; details: ATCC 11230, 24 h, read-out: IZ
Staphylococcus aureus [23] = experiment: Antibacterial activity against Staphylococcus aureus ATCC 6538 at 10 ug after 24 hrs by disk diffusion method; assay type: functional; details: ATCC 6538, 24 h, read-out: IZ
[24] = test system: Mycolicibacterium smegmatis; experiment: Antibacterial activity against Mycobacterium smegmatis CCM 2067 at 10 ug after 24 hrs by disk diffusion method; assay type: functional; details: CCM 2067, 24 h, read-out: IZ
Listeria monocytogenes [25] = experiment: Antibacterial activity against Listeria monocytogenes ATCC 15313 at 10 ug after 24 hrs by disk diffusion method; assay type: functional; details: ATCC 15313, 24 h, read-out: IZ
Bacillus cereus [26] = experiment: Antibacterial activity against Bacillus cereus ATCC 7064 at 10 ug after 24 hrs by disk diffusion method; assay type: functional; details: ATCC 7064, 24 h, read-out: IZ
Pseudomonas aeruginosa [27] = experiment: Antibacterial activity against Pseudomonas aeruginosa ATCC 27853 after 24 hrs by disk diffusion method; assay type: functional
[28] = test system: Hanseniaspora guilliermondii; experiment: Antifungal activity against Hanseniaspora guilliermondii DSM 3432 after 48 hrs by dilution method; assay type: functional
[29] = test system: Mycolicibacterium smegmatis; experiment: Antibacterial activity against Mycobacterium smegmatis CCM 2067 after 24 hrs by disk diffusion method; assay type: functional
Candida albicans [30] = experiment: Antifungal activity against Candida albicans ATCC 10231 after 48 hrs by dilution method; assay type: functional
Rhodotorula mucilaginosa [31] = experiment: Antifungal activity against Rhodotorula rubra DSM 70403 after 48 hrs by dilution method; assay type: functional
Candida albicans [32] = experiment: Antifungal activity against Candida albicans ATCC 10231 after 72 hrs by disk diffusion method; assay type: functional
Micrococcus luteus [33] = experiment: Antibacterial activity against Micrococcus luteus La 2971 after 24 hrs by disk diffusion method; assay type: functional
Bacillus cereus [34] = experiment: Antibacterial activity against Bacillus cereus ATCC 7064 after 24 hrs by disk diffusion method; assay type: functional
Proteus vulgaris [35] = experiment: Antibacterial activity against Proteus vulgaris ATCC 8427 after 24 hrs by disk diffusion method; assay type: functional
Kluyveromyces marxianus [36] = experiment: Antifungal activity against Kluyveromyces fragilis NRRL 2415 after 72 hrs by disk diffusion method; assay type: functional
Debaryomyces hansenii [37] = experiment: Antifungal activity against Debaryomyces hansenii DSM 70238 after 72 hrs by disk diffusion method; assay type: functional
Klebsiella pneumoniae [38] = experiment: Antibacterial activity against Klebsiella pneumoniae UC57 after 24 hrs by disk diffusion method; assay type: functional
Kluyveromyces marxianus [39] = experiment: Antifungal activity against Kluyveromyces fragilis NRRL 2415 after 48 hrs by dilution method; assay type: functional
Escherichia coli [40] = experiment: Antibacterial activity against Escherichia coli ATCC 11230 after 24 hrs by disk diffusion method; assay type: functional
Rhodotorula mucilaginosa [41] = experiment: Antifungal activity against Rhodotorula rubra DSM 70403 after 72 hrs by disk diffusion method; assay type: functional
Listeria monocytogenes [42] = experiment: Antibacterial activity against Listeria monocytogenes ATCC 15313 after 24 hrs by disk diffusion method; assay type: functional
[43] = test system: Hanseniaspora guilliermondii; experiment: Antifungal activity against Hanseniaspora guilliermondii DSM 3432 after 72 hrs by disk diffusion method; assay type: functional
Debaryomyces hansenii [44] = experiment: Antifungal activity against Debaryomyces hansenii DSM 70238 after 48 hrs by dilution method; assay type: functional
Staphylococcus aureus [45] = experiment: Antibacterial activity against Staphylococcus aureus ATCC 6538 after 24 hrs by disk diffusion method; assay type: functional
Debaryomyces hansenii [46] = experiment: Antifungal activity against Debaryomyces hansenii DSM 70238 at 100 ug after 72 hrs by disk diffusion method; assay type: functional, organism-based
Rhodotorula mucilaginosa [47] = experiment: Antifungal activity against Rhodotorula rubra DSM 70403 at 100 ug after 72 hrs by disk diffusion method; assay type: functional, organism-based
Kluyveromyces marxianus [48] = experiment: Antifungal activity against Kluyveromyces fragilis NRRL 2415 at 100 ug after 72 hrs by disk diffusion method; assay type: functional, organism-based
[49] = test system: Hanseniaspora guilliermondii; experiment: Antifungal activity against Hanseniaspora guilliermondii DSM 3432 at 100 ug after 72 hrs by disk diffusion method; assay type: functional, organism-based

Molecule: CO/N=C(\C(=O)N[C@@H]1C(=O)N2C(C(=O)O)=C(COC(C)=O)CS[C@H]12)c1csc(N)n1 [CEFOTAXIME]
- zone of inhibition at 30 µg/disc (Micrococcus luteus [1]): 32 mm
- zone of inhibition at 30 µg/disc (Escherichia coli [2]): 10 mm
- zone of inhibition at 30 µg/disc (Listeria monocytogenes [3]): 16 mm
- zone of inhibition at 30 µg/disc [4]: 11 mm
- zone of inhibition at 30 µg/disc (Proteus vulgaris [5]): 18 mm
- zone of inhibition at 30 µg/disc (Bacillus cereus [6]): 14 mm
- zone of inhibition at 30 µg/disc (Staphylococcus aureus [7]): 12 mm
- zone of inhibition at 30 µg/disc (Klebsiella pneumoniae [8]): 13 mm

Molecule: GENTAMICIN
- MIC [9]: 12.5 µg/mL
- MIC (Micrococcus luteus [10]): 25 µg/mL
- MIC (Proteus vulgaris [11]): 6.25 µg/mL
- MIC (Pseudomonas aeruginosa [12]): 6.25 µg/mL
- MIC (Escherichia coli [13]): 6.25 µg/mL
- MIC (Staphylococcus aureus [14]): 25 µg/mL
- MIC (Klebsiella pneumoniae [15]): 6.25 µg/mL
- MIC (Listeria monocytogenes [16]): 12.5 µg/mL
- MIC (Bacillus cereus [17]): 6.25 µg/mL

Molecule: CC1(C)S[C@@H]2[C@H](NC(=O)Cc3ccccc3)C(=O)N2[C@H]1C(=O)O [PENICILLIN G]
- zone of inhibition at 10 µg/disc (Klebsiella pneumoniae [18]): 18 mm
- zone of inhibition at 10 µg/disc (Micrococcus luteus [19]): 36 mm
- zone of inhibition at 10 µg/disc (Proteus vulgaris [20]): 10 mm
- zone of inhibition at 10 µg/disc (Pseudomonas aeruginosa [21]): 8 mm
- zone of inhibition at 10 µg/disc (Escherichia coli [22]): 18 mm
- zone of inhibition at 10 µg/disc (Staphylococcus aureus [23]): 13 mm
- zone of inhibition at 10 µg/disc [24]: 15 mm
- zone of inhibition at 10 µg/disc (Listeria monocytogenes [25]): 10 mm
- zone of inhibition at 10 µg/disc (Bacillus cereus [26]): 14 mm

Molecule: c1ccc2[nH]c(CCSSCCc3nc4ccccc4[nH]3)nc2c1
- MIC ([9]; CCM 2067, 24 h): 12.5 µg/mL (≈ 35.3 µM)
- inhibition zone (IZ) (Pseudomonas aeruginosa [27]): 11 mm
- MIC ([28]; DSM 3432, 48 h): 12.5 µg/mL (≈ 35.3 µM)
- inhibition zone (IZ) [29]: 13 mm
- MIC (Candida albicans [30]; ATCC 10231, 48 h): 12.5 µg/mL (≈ 35.3 µM)
- MIC (Rhodotorula mucilaginosa [31]; DSM 70403, 48 h): 25 µg/mL (≈ 70.5 µM)
- inhibition zone (IZ) (Candida albicans [32]): 14 mm
- inhibition zone (IZ) (Micrococcus luteus [33]): 12 mm
- inhibition zone (IZ) (Bacillus cereus [34]): 10 mm
- inhibition zone (IZ) (Proteus vulgaris [35]): 14 mm
- inhibition zone (IZ) (Kluyveromyces marxianus [36]): 15 mm
- MIC (Micrococcus luteus [10]): 25 µg/mL (≈ 70.5 µM)
- inhibition zone (IZ) (Debaryomyces hansenii [37]): 11 mm
- MIC (Proteus vulgaris [11]; ATCC 8427, 24 h): 12.5 µg/mL (≈ 35.3 µM)
- inhibition zone (IZ) (Klebsiella pneumoniae [38]): 11 mm
- MIC (Kluyveromyces marxianus [39]; NRRL 2415, 48 h): 6.25 µg/mL (≈ 17.6 µM)
- MIC (Pseudomonas aeruginosa [12]; ATCC 27853, 24 h): 50 µg/mL (≈ 141 µM)
- inhibition zone (IZ) (Escherichia coli [40]): 12 mm
- MIC (Escherichia coli [13]; ATCC 11230, 24 h): 50 µg/mL (≈ 141 µM)
- inhibition zone (IZ) (Rhodotorula mucilaginosa [41]): 12 mm
- inhibition zone (IZ) (Listeria monocytogenes [42]): 13 mm
- MIC (Staphylococcus aureus [14]; ATCC 6538, 24 h): 12.5 µg/mL (≈ 35.3 µM)
- inhibition zone (IZ) [43]: 12 mm
- MIC (Klebsiella pneumoniae [15]): 50 µg/mL (≈ 141 µM)
- MIC (Debaryomyces hansenii [44]; DSM 70238, 48 h): 25 µg/mL (≈ 70.5 µM)
- MIC (Listeria monocytogenes [16]; ATCC 15313, 24 h): 12.5 µg/mL (≈ 35.3 µM)
- inhibition zone (IZ) (Staphylococcus aureus [45]): 14 mm
- MIC (Bacillus cereus [17]; ATCC 7064, 24 h): 100 µg/mL (≈ 282 µM)

Molecule: NYSTATIN
- inhibition zone (IZ) (Debaryomyces hansenii [46]): 16 mm
- inhibition zone (IZ) (Rhodotorula mucilaginosa [47]): 18 mm
- inhibition zone (IZ) (Kluyveromyces marxianus [48]): 18 mm
- MIC [28]: 3.12 µg/mL
- MIC (Candida albicans [30]): 3.12 µg/mL
- MIC (Rhodotorula mucilaginosa [31]): 6.25 µg/mL
- inhibition zone (IZ) [49]: 21 mm
- MIC (Kluyveromyces marxianus [39]): 6.25 µg/mL
- MIC (Debaryomyces hansenii [44]): 12.5 µg/mL
